Patent US8937068B2, “Pyridopyrazine derivatives and their use” (Zentaris GmbH, priority 2005, dated 2015)
pEC50, pIC50: −log10 of the molar value.

How the values were obtained:
[1] = biological target: Erk2 (Homo sapiens, UniProt P28482); test: Cell-free kinase assay (ALPHA technology), Erk2; type: biochemical; conditions: 10 μM ATP
How it was run: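 Recombinant tagged Erk2 kinase reactions were stopped with ALPHA bead mix […]. The signal was read after standing overnight. Controls were run in eight replicates and compounds in duplicate, and IC50 was fitted.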

[2] = biological target: PI3Kalpha (Homo sapiens (Human), UniProt P42336); test: Cell-free kinase assay (ALPHA technology), PI3Kalpha; type: biochemical; conditions: 100 μM ATP
PI3Kalpha, sequence (P42336 whole entry): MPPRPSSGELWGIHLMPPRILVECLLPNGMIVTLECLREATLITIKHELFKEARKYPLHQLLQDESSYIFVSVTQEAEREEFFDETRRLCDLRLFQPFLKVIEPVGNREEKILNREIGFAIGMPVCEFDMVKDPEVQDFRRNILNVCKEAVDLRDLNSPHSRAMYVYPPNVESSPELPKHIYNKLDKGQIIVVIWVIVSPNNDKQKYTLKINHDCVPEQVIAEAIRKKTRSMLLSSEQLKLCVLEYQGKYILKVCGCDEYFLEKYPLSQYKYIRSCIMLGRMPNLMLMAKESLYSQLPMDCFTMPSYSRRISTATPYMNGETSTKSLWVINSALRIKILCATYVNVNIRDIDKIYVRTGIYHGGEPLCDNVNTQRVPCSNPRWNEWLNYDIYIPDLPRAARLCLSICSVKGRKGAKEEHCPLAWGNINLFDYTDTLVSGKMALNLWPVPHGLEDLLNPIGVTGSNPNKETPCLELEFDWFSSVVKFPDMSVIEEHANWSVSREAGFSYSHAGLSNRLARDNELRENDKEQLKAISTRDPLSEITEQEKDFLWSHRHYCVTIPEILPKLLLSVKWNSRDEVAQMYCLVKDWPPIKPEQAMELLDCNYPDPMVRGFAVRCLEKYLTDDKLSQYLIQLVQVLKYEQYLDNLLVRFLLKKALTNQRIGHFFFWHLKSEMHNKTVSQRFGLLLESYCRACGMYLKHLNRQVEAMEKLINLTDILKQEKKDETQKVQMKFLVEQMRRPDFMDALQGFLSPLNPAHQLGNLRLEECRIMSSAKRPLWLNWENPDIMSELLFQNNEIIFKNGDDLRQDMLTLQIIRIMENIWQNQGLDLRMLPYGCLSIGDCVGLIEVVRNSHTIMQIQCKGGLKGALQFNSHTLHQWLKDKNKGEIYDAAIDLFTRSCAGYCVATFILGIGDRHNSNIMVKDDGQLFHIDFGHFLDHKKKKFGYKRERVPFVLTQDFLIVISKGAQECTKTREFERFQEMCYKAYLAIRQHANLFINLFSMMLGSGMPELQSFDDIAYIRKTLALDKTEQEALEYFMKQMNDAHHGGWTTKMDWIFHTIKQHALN
PI3Kalpha, sequence (P27986 whole entry partner): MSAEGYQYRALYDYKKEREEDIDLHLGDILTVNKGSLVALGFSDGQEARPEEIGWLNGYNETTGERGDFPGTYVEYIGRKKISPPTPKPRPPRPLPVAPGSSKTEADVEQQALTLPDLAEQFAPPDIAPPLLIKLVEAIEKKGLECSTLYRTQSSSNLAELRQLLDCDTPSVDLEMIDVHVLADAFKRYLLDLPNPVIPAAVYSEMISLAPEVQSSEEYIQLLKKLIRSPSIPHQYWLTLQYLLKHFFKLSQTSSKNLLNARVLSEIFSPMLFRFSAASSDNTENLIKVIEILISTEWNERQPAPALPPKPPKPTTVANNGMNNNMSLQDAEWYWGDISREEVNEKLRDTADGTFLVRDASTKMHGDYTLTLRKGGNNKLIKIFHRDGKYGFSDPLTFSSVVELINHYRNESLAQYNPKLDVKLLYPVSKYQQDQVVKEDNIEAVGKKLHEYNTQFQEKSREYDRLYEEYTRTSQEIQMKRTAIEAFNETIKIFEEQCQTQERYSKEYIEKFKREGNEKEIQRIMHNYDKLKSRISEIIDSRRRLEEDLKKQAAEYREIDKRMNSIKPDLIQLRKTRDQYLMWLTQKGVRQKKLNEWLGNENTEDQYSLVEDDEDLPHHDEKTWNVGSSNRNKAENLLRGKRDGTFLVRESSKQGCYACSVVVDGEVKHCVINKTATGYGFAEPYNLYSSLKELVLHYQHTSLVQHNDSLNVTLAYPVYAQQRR
How it was run: (§1)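 Recombinant human GST- or His-tagged kinases were assayed for 1 h with ALPHA bead detection read after overnight standing. For PI3Kalpha: 1 ng enzyme, 100 μM ATP, 20 μM PIP2 in Hepes pH 7.4, detected by GST:Grp1/biotin-PIP3 competition. The p38alpha and Jnk assays followed the MAPK format (10 μM ATP, biotin-MBP, anti-phospho-MBP); IC50 from %-inhibition.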

[3] = biological target: p38alpha (Homo sapiens (Human), UniProt Q16539); test: Cell-free kinase assay (ALPHA technology), p38alpha; type: biochemical; conditions: 10 μM ATP
p38alpha, sequence (Q16539 whole entry): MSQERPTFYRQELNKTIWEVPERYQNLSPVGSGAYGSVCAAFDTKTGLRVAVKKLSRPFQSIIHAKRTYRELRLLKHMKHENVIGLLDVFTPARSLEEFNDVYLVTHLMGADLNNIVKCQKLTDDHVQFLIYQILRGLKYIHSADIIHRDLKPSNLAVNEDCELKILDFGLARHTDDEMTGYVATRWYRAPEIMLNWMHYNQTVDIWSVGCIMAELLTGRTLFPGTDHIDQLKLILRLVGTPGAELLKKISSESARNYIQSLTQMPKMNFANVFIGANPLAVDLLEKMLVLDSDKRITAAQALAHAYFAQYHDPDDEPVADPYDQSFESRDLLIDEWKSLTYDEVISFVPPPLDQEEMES

[4] = test system: Jnk1 + Jnk2; test: Cell-free kinase assay (ALPHA technology), Jnk1 + Jnk2; type: biochemical, human; conditions: 10 μM ATP
How it was run: as §1

[5] = test system: BxPC3; test: XTT assay, anti-proliferative effect, BxPC3; type: cell-based; conditions: Homo sapiens, BXPC-3; 45 h incubation
Method: (§2) The principle of this test is based on the intracellular reduction of the tetrazolium dye XTT (sodium 3′-[1-(phenylaminocarbonyl)-3,4-tetrazolium]-bis(4-methoxy-6-nitro)benzene sulfonic acid, Sigma) to a formazan dye by mitochondrial dehydrogenases. The dye is only formed by metabolically active cells and its photometrically measurable intensity is a quantitative indicator for the presence of living cells. The reduction of dye formation by incubation of the cells with substances serves as a parameter for the anti-proliferative effect.
(§3) The tumour cell lines (ATCC) were injected into 96-well microtitre plates in a defined cell number (5000 cells/well for BxPC3 and Hct116; 10000 cells/well for MDA MB468) and then incubated overnight in an incubator at 37° C., 5% CO2 and 95% air humidity. The test substances were prepared as stock solutions (10 mM) in DMSO. […] The cell plates were then incubated for 45 h in an incubator at 37° C., 5% CO2 and 95% air humidity.
(§4) For the detection reaction the substrate XTT was mixed with PMS (N-Methyl dibenzopyrazine methylsulfate, Sigma) and added to the cells so that a final concentration of 325 μg XTT/ml and 2.5 μg PMS/ml was obtained. It was then incubated for 3 h at 37° C., 95% air humidity. The formazan salt formed by the cellular dehydrogenases could then be quantified by adsorption at 490 nm.
(§5) The % inhibition value was evaluated by means of the following formula from the values for the optical densities measured in each case at 490 nm:
(§6) Eight determinations were made for each control and two for the substance samples. The 0% control contains no cells, the 100% control (proliferation control) contains no test substance. The EC50 values were determined using GraphPadPrism.

[6] = test system: MDA-MB468; test: XTT assay, anti-proliferative effect, MDA-MB468; type: cell-based; conditions: Homo sapiens, MDA-MB-468; 45 h incubation
Method: as §2, §3, §4, §5, §6

[7] = test system: Hct116; test: XTT assay, anti-proliferative effect, Hct116; type: cell-based; conditions: Homo sapiens, HCT-116; 45 h incubation
Method: as §2, §3, §4, §5, §6

[8] = test system: Erk → pRsk; test: Cellular substrate phosphorylation (Western Blotting), Erk substrate pRsk; type: cell-based; conditions: for inhibition at 50 µM: 5 h; for Erk inhibition / inhibition of the Erk substrate p-Rsk (in words): Western Blotting
Method: (§7) This method can be used to predict whether the kinase modulator under study also achieves the desired effect in a cellular context, i.e. in this case, a substrate protein downstream of the target kinase is investigated for its phosphorylation status. For this purpose, the cells incubated with substance are lysed and the total protein separated on a reducing polyacrylamide gel. The proteins are then transferred to a PVDF membrane by means of Western Blotting and the substrate bands sought are made visible with specific antibodies and a suitable detection method. The substrate proteins downstream of the target kinases are detected simultaneously with a respectively special anti-phospho-antibody and at the same time a total antibody which recognizes the substrate total protein. This simultaneous measurement can be made using the duplex technology of the ODYSSEY imagers (LiCOR). The intensity of the total substrate bands is used for normalising or quantifying the phosphorylation inhibition or activation.
(§8) Suitable tumour cell lines (e.g. BxPC3, Hct116 or MDA MB468) were injected into six-well microtitre plates in a defined cell number (e.g. 350 000 cells/well for BxPC3 and Hct116) in the respective standard complete medium and then incubated overnight at 37° C., 5% CO2 and 95% air humidity. The cells were then incubated for a further 24 h under serum-reduced conditions i.e. in the respective medium but with only 0.25% serum. The test substances were prepared as stock solutions (10 mM) in DMSO and incubated with the cells in final concentrations of 5, 15.8 and 50 μM for 5 h. This was followed by cell lysis in 25 mM Tris, 150 mM NaCl, 10 mM Na-pyrophosphate, 2 mM EGTA, 25 mM β-glycerophosphate, 25 mM NaF, 10% glycerine, 0.75% NP-40, 100 μM NaVO4 buffer. Following protein quantification by means of BCA (bicinchonic acid protein assay kit, Sigma) Assay, protein quantities of about 20 μg per track were separated on a Lämmli polyacrylamide gel and then transferred to a PVDF membrane (Millipore) by means of Semi-Dry Western-Blotting at 0.8 mA/cm^2 for 1 h. This was followed by pre-hybridisation of the membrane for 1 hour in I-block reagent (Applied Biosystems) and incubation overnight with the specific antibodies. To determine the Erk and PI3K inhibition, the respectively downstream substrates Rsk1 were detected with the total antibody (Rsk #sc-231g C-21, Santa Cruz) and the phospho-antibody (Phospho-p90RSK (S380) #9341, NEB Cell Signalling) and Akt was detected with the total antibody (Akt1 #sc-1618 C-20, Santa Cruz) and the phospho-antibody (Phospho-Akt (Ser 473) #9271, NEB Cell Signaling). After washing the membrane, secondary antibody incubation was carried out with anti-rabbit IR Dye 800 (#611-732-127, Rockland) for the phospho-antibody and anti-goat Alexa Fluor 680 (#A-21081, Molecular Probes) for the total protein-antibody. After incubating for 30 min at room temperature in the dark, the hybridisation of the detection antibody on the membrane was detected by scanning in the ODYSSEY imager (LiCOR).
(§9) The reduction of the fluorescence intensity of the phospho-substrate bands (pRsk and pAkt) is given in the table below as % inhibition and relates to the following formula:
(§10) The band intensity (fluorescence intensity) of the respective non-inhibited (without substance) phospho-substrates was used as 100% control.

[9] = test system: PI3K → pAkt; test: Cellular substrate phosphorylation (Western Blotting), PI3K substrate pAkt; type: cell-based; conditions: for inhibition at 50 µM: 5 h; for PI3K inhibition / inhibition of the PI3K substrate p-Akt (in words): Western Blotting
Method: as §7, §8, §9, §10

[10] = test system: tumour cell lines (BxPC3, Hct116, MDA MB468); test: XTT assay, anti-proliferative effect on the cell lines used; type: cell-based; conditions: compared to the Exemplary Embodiments
Method: as §2
The tumour cell lines (ATCC) were injected into 96-well microtitre plates in a defined cell number (5000 cells/well for BxPC3 and Hct116; 10000 cells/well for MDA MB468) and then incubated overnight in an incubator at 37° C., 5% CO2 and 95% air humidity. […]
as §4, with “It was then incubated for 3 h at 37° C., 95% air humidity.” left out
as §5
Eight determinations were made for each control and two for the substance samples. […] The EC50 values were determined using GraphPadPrism.

Erk2, sequence (P28482 2-360 limits assumed): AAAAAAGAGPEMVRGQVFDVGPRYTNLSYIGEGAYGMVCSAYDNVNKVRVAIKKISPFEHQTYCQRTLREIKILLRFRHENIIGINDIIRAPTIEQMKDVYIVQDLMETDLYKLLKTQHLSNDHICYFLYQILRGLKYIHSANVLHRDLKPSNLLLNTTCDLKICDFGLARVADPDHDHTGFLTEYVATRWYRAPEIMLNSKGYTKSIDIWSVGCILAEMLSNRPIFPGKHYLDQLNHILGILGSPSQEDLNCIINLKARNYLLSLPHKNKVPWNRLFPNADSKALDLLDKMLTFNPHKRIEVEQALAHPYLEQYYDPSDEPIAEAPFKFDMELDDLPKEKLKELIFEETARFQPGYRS

Structure (SMILES) | pIC50 [1] | pIC50 [2] | pIC50 [3] | pIC50 [4] | pEC50 [5] | pEC50 [6] | pEC50 [7] | inhibition at 50 µM [8] | Erk inhibition / inhibition of the Erk substrate p-Rsk (in words) [8] | inhibition at 50 µM [9] | PI3K inhibition / inhibition of the PI3K substrate p-Akt (in words) [9] | anti-proliferative effects on the cell lines used (in words) [10]
CCNC(=O)Nc1ccc2ncc(-c3ccc(OC)c(OC)c3)nc2n1 [Compound 153, 1-[3-(3,4-Dimethoxy-phenyl)-pyrido[2,3-b]pyrazin-6-yl]-3-ethyl-urea] | 6.03 | 6.21 | < 4.00 | 5.17 | < 4.60 | 4.62 | 5.22 | – | – | – | – | –
CCNC(=O)Nc1ccc2ncc(-c3cc(Cl)c(O)c(OC)c3)nc2n1 [Compound 156, 1-[3-(3-Chloro-4-hydroxy-5-methoxy-phenyl)-pyrido[2,3-b]pyrazin-6-yl]-3-ethyl-urea] | 6.86 | 6.37 | < 4.00 | 5.68 | 5.05 | 4.82 | 5.85 | – | – | – | – | –
COC[C@H]1OC(=O)c2coc3c2[C@@]1(C)C1=C(C3=O)[C@@H]2CCC(=O)[C@@]2(C)C[C@H]1OC(C)=O [Wortmannin, reference compound] | – | – | – | – | – | – | – | 0% | no Erk or p-RSK inhibition | 100% | complete inhibition of the PI3K substrate pAkt | –

The next lines start with results.

pIC50 [1] | pIC50 [2] | pIC50 [3] | pIC50 [4] | pEC50 [5] | pEC50 [6] | pEC50 [7] | Structure (SMILES) | inhibition at 50 µM [8] | Erk inhibition / inhibition of the Erk substrate p-Rsk (in words) [8] | inhibition at 50 µM [9] | PI3K inhibition / inhibition of the PI3K substrate p-Akt (in words) [9] | anti-proliferative effects on the cell lines used (in words) [10]
< 4.00 | 6.46 | < 4.00 | 4.55 | < 4.60 | 5.46 | 5.36 | CCNC(=O)Nc1ccc2ncc(Nc3cccc(C)c3)nc2n1 [Compound 157, 1-Ethyl-3-(3-m-tolylamino-pyrido-[2,3-b]pyrazin-6-yl)-urea] | – | – | – | – | –
4.71 | 6.35 | < 4.00 | 4.61 | < 4.30 | 5.28 | < 4.60 | CCNC(=O)Nc1ccc2ncc(Nc3ccc(O)cc3)nc2n1 [Compound 164, 1-Ethyl-3-[3-(4-hydroxy-phenylamino)-pyrido[2,3-b]pyrazin-6-yl]-urea] | – | – | – | – | –
– | – | – | – | 4.60 | 4.70 | 4.77 | O=c1cc(N2CCOCC2)oc2c(-c3ccccc3)cccc12 [Ly294002, reference compound] | 0% | no Erk inhibition | 40% | only weak PI3K inhibition | weak anti-proliferative effects
